Test results: EP4810052A2, “HCRHR2 SELECTIVE POLYPEPTIDES” (Gubra A/S, priority 2023, dated 2026)
Like-named read-outs stand apart in the source and are kept apart here. Marks after values point to notes of the source that are not given here. Starred links: 1 amine or outer side, 2 acyl side, 3 side chain; linkers in the order of their positions; H or OH if unused. Non-standard residues stand in square brackets, D forms with d. Residues, ends and D or L forms follow the SMILES beside them. Groups on a side chain read outwards from the residue. *: point of attachment. C20 diacid = O=C(O)CCCCCCCCCCCCCCCCCCC(=O)*; γGlu = O=C(O)[C@H](CCC(=O)[*:2])N[*:1]; NMeI = CC[C@H](C)[C@H](NC)C(=O)O; Nle = CCCC[C@H](N)C(=O)O; AEEA = NCCOCCOCC(=O)O; Aib = CC(C)(N)C(=O)O

Columns and labels:
hCRHR2 = target: T1, hCRHR2 (Homo sapiens, UniProt Q13324); test: HTRF cAMP assay, determination of hCRHR2 potency (peptide libraries 5 conc., purified peptides 11 conc.); type: cell-based
T1 sequence (Q13324 1-411): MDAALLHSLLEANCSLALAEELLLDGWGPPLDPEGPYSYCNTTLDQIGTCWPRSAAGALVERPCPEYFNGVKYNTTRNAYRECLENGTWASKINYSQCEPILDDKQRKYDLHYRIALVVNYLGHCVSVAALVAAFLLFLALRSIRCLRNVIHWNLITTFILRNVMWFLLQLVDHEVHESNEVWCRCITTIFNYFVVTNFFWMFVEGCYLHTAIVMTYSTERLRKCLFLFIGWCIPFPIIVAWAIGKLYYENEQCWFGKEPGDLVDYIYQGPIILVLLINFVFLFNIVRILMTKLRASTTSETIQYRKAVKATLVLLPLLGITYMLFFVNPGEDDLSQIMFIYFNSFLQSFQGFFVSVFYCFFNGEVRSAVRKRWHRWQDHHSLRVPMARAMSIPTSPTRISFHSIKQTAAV
Outline: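 CHO-K1 cells stably expressing human CRHR2 were thawed from frozen stocks immediately before use and assayed in suspension with agonist peptides. cAMP was measured by time-resolved FRET in a competitive immunoassay between cryptate-labelled anti-cAMP antibody and d2-labelled cAMP. EC50 values came from nonlinear regression, sigmoid variable-slope fit.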

hCRHR1 = target: T2, hCRHR1 (Homo sapiens, UniProt P34998); test: HTRF cAMP assay, determination of hCRHR1 potency (peptide libraries 5 conc., purified peptides 11 conc.); type: cell-based
T2 sequence (P34998 24-415): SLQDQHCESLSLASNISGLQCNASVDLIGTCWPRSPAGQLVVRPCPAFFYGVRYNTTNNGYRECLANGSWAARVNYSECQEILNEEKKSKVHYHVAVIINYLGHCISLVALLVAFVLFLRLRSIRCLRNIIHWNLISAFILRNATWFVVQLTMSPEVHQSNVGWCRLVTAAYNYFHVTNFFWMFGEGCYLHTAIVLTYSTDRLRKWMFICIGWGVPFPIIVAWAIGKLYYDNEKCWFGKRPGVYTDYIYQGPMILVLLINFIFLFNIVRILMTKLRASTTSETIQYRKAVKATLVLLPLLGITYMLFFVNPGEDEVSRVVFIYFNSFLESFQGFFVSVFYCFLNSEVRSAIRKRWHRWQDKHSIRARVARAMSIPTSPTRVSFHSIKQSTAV
Outline: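 CHO-K1 cells stably expressing human CRHR1, thawed from frozen stocks just before use, were stimulated in suspension with agonist peptides. cAMP was measured by HTRF competitive immunoassay (cryptate anti-cAMP antibody vs d2-cAMP).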

PK in rats = type: in vivo; parameters: T½ / MRT: unit not given here; conditions: for MRT / T½ / clearance / half-life / Cmax / Tmax: Rat; for clearance / half-life / Cmax / Tmax / bioavailability: male, in vivo; for clearance / half-life / Cmax / Tmax: Sprague Dawley (RJHan:SD); for half-life: read-out: T½ (converted); for bioavailability: Sprague Dawley, rat
Outline: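 Lean male Sprague Dawley rats (n = 3 per group) got a two-peptide combination at 50 nmol/kg IV and SC. Plasma was sampled from 0.17 to 96 h post dose and analysed by LC-MSMS. PK parameters came from non-compartmental analysis.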

[1] = Effect on acute food intake in mice; type: in vivo; conditions: single subcutaneous dose
Description: Male NMRI mice were obtained from JanVier (JanVier Labs, France) at 5 weeks of age. The animals were group-housed 4 mice pr. cage under a 12/12 h dark-light cycle, light off at 1 PM. Room temperature was controlled to 22°C ± 1°C, with 60 % ± 20% humidity. Animals had ad libitum access to regular rodent chow (Altromin 1324, Brogaarden, Denmark) and tap water.
Animals were transferred 5-7 days before the start of the study to a real-time food intake monitoring system, HM-2 system (MBRose, Denmark) to allow acclimatization to experimental conditions. As the animals were uniquely identified with microchips, each individual animal was identified by its microchip upon entry and exit from the food channel. Randomization of the mice for each study group (n=7-8) was based on body weight measured the day before the start of the study. A vehicle-treated group was included in each experiment. Six hours before the start of the dark phase, animals were fasted. One hour before the dark phase, animals were dosed once subcutaneously with test peptide. Food intake was reported hourly for a period of 72 hours. The percentage of food intake reduction was normalized to average food intake from the vehicle group. Statistical significance was evaluated using One-way analysis of variance with Dunnett's multiple comparison test. P < 0.05 was considered statistically significant.
Selected compounds were tested according to the general procedure on acute food intake in mice to determine the effect of a single subcutaneous dose on food intake in mice over 3 days.

[2] = purified peptides, CHO-K1 cells stably expressing hCRHR2, cAMP HTRF, read-out: hCRHR2 EC50
[3] = purified peptides, CHO-K1 cells stably expressing hCRHR1, cAMP HTRF, read-out: hCRHR1 EC50
[4] = stable cell system, Table 10, read-out: Stable EC50 (nM) hCRHR 1
[5] = Table 5, purified peptides, read-out: hCRHR1 EC50

| SMILES | Selectivity ratio (hCRHR1/ hCRHR2) (hCRHR2; hCRHR1-EC50/hCRHR2-EC50) | EC50 (hCRHR2; [2]) [nM] | EC50 (hCRHR1; [3]) [nM] | EC50 (hCRHR1; [4]) [nM] | MRT (PK in rats) | T½ (PK in rats) | clearance (PK in rats; iv, 50 nmol/kg i.v.) [mL/min/kg] | half-life (PK in rats; iv, 50 nmol/kg i.v.) [h] | Cmax (PK in rats; sc, 50 nmol/kg s.c.) [µM] | Tmax (PK in rats; sc, 50 nmol/kg s.c.) [h] | half-life (PK in rats; sc, 50 nmol/kg s.c.) [h] | bioavailability (PK in rats; sc) [%] | % FI compared to vehicle, 24 h post-dosing ([1]; 30 nmol/kg) | % FI compared to vehicle, 24 h post-dosing ([1]; 100 nmol/kg) | % FI compared to vehicle, 24 h post-dosing ([1]; 300 nmol/kg) | Selectivity ratio (hCRHR1/ hCRHR2) (hCRHR2; Table 5) | EC50 (hCRHR1; [5]) [nM] | Solubility pH 7.5, target conc. =10 mg/mL (measured mg/mL) (pH 7.5) [mg/mL] | also measured |
| --- | --- | --- | --- | --- | --- | --- | --- | --- | --- | --- | --- | --- | --- | --- | --- | --- | --- | --- | --- |
| CC[C@H](C)[C@H](NC)C(=O)N[C@H](C(=O)N[C@@H](CC(C)C)C(=O)N[C@@H](CO)C(=O)N[C@@H](CC(C)C)C(=O)N[C@@H](CC(=O)O)C(=O)N[C@H](C(=O)N1CCC[C@H]1C(=O)N[C@H](C(=O)NCC(=O)N[C@@H](CC(C)C)C(=O)N[C@@H](CC(C)C)C(=O)N[C@@H](CCC(N)=O)C(=O)N[C@H](C(=O)N[C@@H](CC(C)C)C(=O)N[C@@H](CC(C)C)C(=O)N[C@@H](CCC(=O)O)C(=O)N[C@@H](CCC(N)=O)C(=O)N[C@@H](C)C(=O)N[C@@H](CCCNC(=N)N)C(=O)N[C@@H](C)C(=O)N[C@@H](CCCNC(=N)N)C(=O)N[C@@H](C)C(=O)N[C@@H](C)C(=O)N[C@@H](CCCNC(=N)N)C(=O)N[C@@H](CCC(=O)O)C(=O)N[C@@H](CCC(N)=O)C(=O)N[C@@H](C)C(=O)N[C@H](C(=O)N[C@@H](CCCCNC(=O)COCCOCCNC(=O)COCCOCCNC(=O)CC[C@H](NC(=O)CC[C@H](NC(=O)CCCCCCCCCCCCCCCCCCC(=O)O)C(=O)O)C(=O)O)C(=O)N[C@@H](CC(N)=O)C(=O)N[C@@H](C)C(=O)N[C@@H](CCC(=O)O)C(=O)N[C@H](C(=O)N[C@@H](CC(C)C)C(=O)N[C@@H](C)C(=O)N[C@@H](CCC(=O)O)C(=O)N[C@H](C(N)=O)C(C)C)[C@@H](C)CC)[C@@H](C)O)[C@@H](C)CC)[C@@H](C)CC)C(C)C)C(C)C [SEQ ID NO: 6] (H-[NMeI]VLSLDVPIGLLQILLEQARARAAREQATK([AEEA-AEEA-γGlu-γGlu-C20 diacid])NAEILAEV-NH2) | >1852 | 2.7 | > 5000 | > 5000 | 7.4 | 6.1 | 0.15 | 6.1 | 0.07 | 24 | 8.4 | 35 | 51.61*** % | 25.76*** % | 12.69*** % |  |  |  | EC50 (hCRHR2; stable cell system, Table 10, read-out: Stable EC50 (nM) hCRHR 2a): 3 nM; Solubility pH 6.5 (mg/ml) (pH 6.5): 21.1 mg/ml; Solubility pH 7.0 (mg/mL) (pH 7): 20.0 mg/mL; Solubility pH 7.5 (mg/mL) (pH 7.5): 18.7 mg/mL; Solubility pH 7.5 + phenol (mg/mL) (pH 7.5): 18.1 mg/mL |
| CCCC[C@H](NC(=O)[C@@H](NC(=O)[C@H](CCC(=O)O)NC(=O)[C@H](C)NC(=O)[C@H](CC(N)=O)NC(=O)C(C)(C)NC(=O)[C@H](CCCCNC(=O)COCCOCCNC(=O)COCCOCCNC(=O)CC[C@H](NC(=O)CC[C@H](NC(=O)CCCCCCCCCCCCCCCCCCC(=O)O)C(=O)O)C(=O)O)NC(=O)[C@H](C)NC(=O)[C@H](CCC(N)=O)NC(=O)[C@H](CCC(=O)O)NC(=O)[C@H](CCCNC(=N)N)NC(=O)[C@H](C)NC(=O)[C@H](C)NC(=O)[C@H](CCCNC(=N)N)NC(=O)[C@H](C)NC(=O)[C@H](CCCNC(=N)N)NC(=O)[C@H](C)NC(=O)[C@H](CCC(N)=O)NC(=O)[C@H](CO)NC(=O)[C@H](CC(C)C)NC(=O)[C@H](CC(C)C)NC(=O)[C@@H](NC(=O)[C@H](CCC(N)=O)NC(=O)[C@H](CC(C)C)NC(=O)[C@H](CC(C)C)NC(=O)CNC(=O)[C@@H](NC(=O)[C@@H]1CCCN1C(=O)[C@@H](NC(=O)[C@H](CC(=O)O)NC(=O)[C@H](CC(C)C)NC(=O)[C@H](CO)NC(=O)[C@H](CC(C)C)NC(=O)[C@@H](NC(=O)[C@@H](N)[C@@H](C)CC)C(C)C)C(C)C)[C@@H](C)CC)[C@@H](C)CC)[C@@H](C)CC)C(=O)N[C@@H](C)C(=O)N[C@@H](CCC(=O)O)C(=O)N[C@H](C(N)=O)C(C)C [compound 237] (H-IVLSLDVPIGLLQILLSQARARAAREQAK([AEEA-AEEA-γGlu-γGlu-C20 diacid])[Aib]NAEI[Nle]AEV-NH2) |  |  |  |  | 5.1 | 4.1 |  |  |  |  |  |  | 51.49*** % | 16.66*** % | 13.2*** % | >6494 | > 5000 | 10 | EC50 (hCRHR2; Table 5, purified peptides, read-out: hCRHR2 EC50): 0.77 nM |
| CC[C@H](C)[C@H](N)C(=O)N[C@H](C(=O)N[C@@H](CC(C)C)C(=O)N[C@@H](CO)C(=O)N[C@@H](CC(C)C)C(=O)N[C@@H](CC(=O)O)C(=O)N[C@H](C(=O)N1CCC[C@H]1C(=O)N[C@H](C(=O)NCC(=O)N[C@@H](CC(C)C)C(=O)N[C@@H](CC(C)C)C(=O)N[C@@H](CCC(N)=O)C(=O)N[C@H](C(=O)N[C@@H](CC(C)C)C(=O)N[C@@H](CC(C)C)C(=O)N[C@@H](CCC(=O)O)C(=O)N[C@@H](CCC(N)=O)C(=O)N[C@@H](C)C(=O)N[C@@H](CCCNC(=N)N)C(=O)N[C@@H](C)C(=O)N[C@@H](CCCNC(=N)N)C(=O)N[C@@H](C)C(=O)N[C@@H](C)C(=O)N[C@@H](CCCNC(=N)N)C(=O)N[C@@H](CCC(=O)O)C(=O)N[C@@H](CCC(N)=O)C(=O)N[C@@H](C)C(=O)N[C@@H](CCCCNC(=O)COCCOCCNC(=O)COCCOCCNC(=O)CC[C@H](NC(=O)CC[C@H](NC(=O)CCCCCCCCCCCCCCCCCCC(=O)O)C(=O)O)C(=O)O)C(=O)N[C@H](C(=O)N[C@@H](CC(N)=O)C(=O)N[C@@H](C)C(=O)N[C@@H](CCC(=O)O)C(=O)N[C@H](C(=O)N[C@@H](CC(C)C)C(=O)N[C@@H](C)C(=O)N[C@@H](CCC(=O)O)C(=O)N[C@H](C(N)=O)C(C)C)[C@@H](C)CC)[C@@H](C)O)[C@@H](C)CC)[C@@H](C)CC)C(C)C)C(C)C [SEQ ID NO: 3] (H-IVLSLDVPIGLLQILLEQARARAAREQAK([AEEA-AEEA-γGlu-γGlu-C20 diacid])TNAEILAEV-NH2) | >4546 | 1.1 | > 5000 | > 5000 | 9.2 | 7.7 | 0.0833 | 7.7 | 0.09 | 24 | 7.9 | 27 | 67.63*** % | 30.75*** % | 30.66*** % | >4546 | > 5000 | 10 | EC50 (hCRHR2; Table 3, matched molecular pairs X^38 L vs Nle, peptide library of Example 4, read-out: hCRHR2 pEC50 (converted)): 0.501 nM; EC50 (hCRHR1; Table 3, matched molecular pairs X^38 L vs Nle, peptide library of Example 4, read-out: hCRHR1 pEC50 (converted)): 25100 nM; Solubility pH 7.5, target conc. =5 mg/mL (measured mg/mL) (pH 7.5): 4.5 mg/mL |
